# Where two headings read alike, the source gives them in different places.
# Experiments:
# [1] = cited from earlier work
# [2] = Skin absorption of indomethacin suspended in conventional ointment bases; assay type: in vivo, human beings; settings: topical
# [3] = Topical administration of indomethacin: activity and adverse reactions; assay type: in vivo; settings: administered topically
# [4] = Effect of adjuvant on skin absorption of indomethacin; assay type: in vivo; settings: combination with an adjuvant
# [5] = in water and common media; cited from earlier work
# [6] = Effect of pH of the ointment on indomethacin (crystallization, decomposition); assay type: physicochemical
smiles,measurement,setting,value
"COc1ccc2c(c1)c(CC(=O)O)c(C)n2C(=O)c1ccc(Cl)cc1 [indomethacin, Indomethacin]",adverse effects,[1]; oral use,gastroenteric disorders
same,adverse effects,"[1]; suppository form, patient suffering from peptic ulcer","decreased appetite, nausea, vomiting, stomach ache, diarrhea and loose passage"
same,absorption by the skin,[2],remain unabsorbed by the skin of human beings
same,adverse reactions attributable to the administration of indomethacin,[3],completely eliminated
same,"antiinflammatory analgesic activity, topical vs internal use",[3],to the same extent as attained by its internal use
same,absorption of indomethacin by the skin,[4],substantially increased
same,solubility,[5],only slightly soluble
same,decomposition of indomethacin,[6]; pH level above 7.5,decomposed indomethacin
same,crystallization during the ointment preparation,[6]; pH level below 4.8,crystallization of indomethacin

# — patent publication US4525347A, “Antiinflammatory analgesic gelled ointment” (Kowa Company Limited, priority 1983, dated 1985)
